The text below walks through data of patent US5457106A, “Pyridine derivatives, their production and use” (Takeda Chemical Industries, Ltd., priority 1991, dated 1995).

Counter-ions that a name gives are not always drawn.

For one test, the target named is T1, cyclooxygenase (Rattus norvegicus, UniProt Q63921).
T1 construct: from tissue; host or cells: platelets in platelet-rich plasma from rat abdominal aorta blood (Jcl:wistar, male)
T1 sequence (Q63921 27-602): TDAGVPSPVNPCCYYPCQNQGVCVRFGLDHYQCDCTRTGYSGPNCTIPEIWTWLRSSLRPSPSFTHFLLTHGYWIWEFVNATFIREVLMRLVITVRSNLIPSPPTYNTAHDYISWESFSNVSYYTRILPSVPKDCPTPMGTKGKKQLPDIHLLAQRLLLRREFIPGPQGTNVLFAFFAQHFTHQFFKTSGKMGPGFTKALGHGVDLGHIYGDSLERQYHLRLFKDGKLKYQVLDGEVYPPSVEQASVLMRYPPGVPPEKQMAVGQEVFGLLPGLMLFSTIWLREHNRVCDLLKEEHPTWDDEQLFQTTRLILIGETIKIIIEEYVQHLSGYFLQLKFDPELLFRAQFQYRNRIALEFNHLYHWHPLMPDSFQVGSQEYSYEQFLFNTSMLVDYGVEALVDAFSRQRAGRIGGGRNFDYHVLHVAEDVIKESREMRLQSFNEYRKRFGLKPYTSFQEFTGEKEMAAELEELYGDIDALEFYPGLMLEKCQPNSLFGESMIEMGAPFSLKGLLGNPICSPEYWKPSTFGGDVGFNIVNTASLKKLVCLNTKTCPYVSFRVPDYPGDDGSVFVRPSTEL
Description: Cyclooxygenase inhibitory activity (HHT formation from arachidonic acid in rat platelet-rich plasma). In kind it is cell-based, rat (Jcl:wistar).

Test [1] has as its system Mouse phenylquinone writhing. As to the kind of experiment: Mouse phenylquinone writhing inhibitory activity. In kind it is in vivo, mouse (Slc: ICR). Conditions: 50 mg/kg, orally; for inhibition in vivo at 50 mg/kg: Mus musculus, po, 20 min, read-out: Inhibitory percentage (phenylquinone writhing). The method, then: Mouse Phenylquinone Writhing Inhibitory Activity A Slc: ICR male mouse (4 weeks, weight 17 to 24 g) was used. A test compound suspended in 5% gum arabic solution was administered orally. After 30 minutes, 0.1 ml/10 g body weight of 0.02% phenylquinone solution in water (dissolved by the aid of 5% ethanol) was injected intraperitoneally, and writhing and stretching responses of individual animals were measured for 20 minutes [Siegmund, E., Cadmus, R. and Lu, G.; Proc. Soc. exp. Biol. Med. 95, (1957)].
In general terms: In writhing tests, fewer writhes than in controls are read as antinociception.

Test [2] relates to ART (antigen-responding T-cell). Description: In vitro ART (antigen-responding T-cell) proliferation test. In kind it is cell-based, Lewis rat. Conditions: for inhibition at 1 µM / inhibition at 10 µM: Rattus norvegicus, T-cell, read-out: % Inhibition of ART growth.

In general, IC50 refers to the concentration at which inhibition is half-maximal. A high value points to lower potency. As for `CCCCCCCCCC(=O)NCCSc1ccncc1` [Example 7], half-maximal inhibition against cyclooxygenase (IC50) was put at 4.4 µM.
As to `CCCCCCCCCC(=O)NCCCCSc1ccncc1` [Example 8], inhibition against cyclooxygenase was half-maximal at 1.1 µM (IC50). This IC50 is about 4-fold lower than that of the compound before.
Turning to `CCCCCCCCCC(=O)NCCCCCSc1ccncc1` [Example 9], at cyclooxygenase, the IC50 was 2.2 µM.
`CCCCCCCCCC(=O)NCCCCCCSc1ccncc1` [Example 10] returned an IC50 on cyclooxygenase of 2.2 µM.
The same measure, in the same setting: with `CCCC(=O)NCCCSc1ccncc1` [Example 14, 4-[3-(butyrylamino)propylthio]pyridine] the figure was 13.2 µM; with `CCCCCC(=O)NCCCSc1ccncc1` [Example 15, 4-[3-(hexanoylamino)propylthio]pyridine], 5.1 µM; with `CCCCCCCC(=O)NCCCSc1ccncc1` [Example 16], 12.9 µM.
Still for that read-out and setting: with `CCCCCCCCCCCCCC(=O)NCCCSc1ccncc1` [Example 18, 4-[3-(myristoylamino)propylthio] pyridine] the figure was 7 µM.
On to `O=C(NCCCSc1ccncc1)C1CCCCC1` [Example 23, 4-[3-(cyclohexanoylamino)propylthio]pyridine hydrochloride], for which the inhibition in vivo at 50 mg/kg in test [1] stood at 58%.
On to `O=C(NCCCSc1ccncc1)c1cccc2ccccc12` [Example 27, 4-[3-(1-naphthoylamino)propylthio]pyridine hydrochloride], for which, at cyclooxygenase, the midpoint of inhibition, the IC50, lay at 5.4 µM. In other words, the single-digit micromolar range.
For the compound `COc1ccc(C(=O)NCCCSc2ccncc2)cc1` [Example 30, 4-[3-(4-methoxybenzoylamino)propylthio]pyridine], the IC50 against cyclooxygenase came to 6.6 µM.
The inhibition is the change of the read-out against control, counted positive when it falls. With `CCCCc1ccc(C(=O)NCCCSc2ccncc2)cc1` [Example 34, 4-[3-(4-n-butylbenzoylamino)propylthio]pyridine hydrochloride], at cyclooxygenase, half-maximal inhibition (IC50) was put at 2.9 µM. In addition, the inhibition at 1 µM in test [2] (1 μM) is 31%. The inhibition at 10 µM in test [2] came to 47%.
`O=C(NCCCSc1ccncc1)c1ccccc1O` [Example 36, 4-[3-(salicyloylamino)propylthio]pyridine hydrochloride] came in with an IC50 on cyclooxygenase of 6 µM.
The same measure, in the same setting: next, `O=C(CCCc1ccccc1)NCCCSc1ccncc1` [Example 39, 4-[3-(4-phenyl-n-butyrylamino)propylthio]pyridine]: 4.4 µM; `O=C(/C=C/c1cnc2ccccc2c1)NCCCSc1ccncc1` [Example 44, 4-[3-(3-quinolineacryloylamino)propylthio]pyridine]: 3.3 µM; `Cn1cccc1C(=O)NCCCSc1ccncc1` [Example 45, 4-[3-(1-methyl-2-pyrrolecarbonylamino)propylthio]pyridine]: 6.6 µM.
For the compound `O=C(NCCCSc1cccnc1)c1cccs1` [Example 48, 3-[3-(thenoylamino)propylthio]pyridine], the inhibition in vivo at 50 mg/kg in test [1] turned out to be 31%.
Take `O=C(NCCCOc1ccccn1)c1cccs1` [Example 61, 2-[3-(2-thenoylamino)propyloxy]pyridine]: on cyclooxygenase, the IC50 amounted to 11 µM.
As to `O=C1c2ccccc2C(=O)N1COc1ccccn1` [Example 67, 2-(phthalimidomethyloxy)pyridine], the inhibition in vivo at 50 mg/kg in test [1] worked out at 49%.
With `CC(C)(C)C(=O)Nc1ncccc1SCN1C(=O)c2ccccc2C1=O` [Example 74, 3-(phthalimidomethylthio)-2-pivaloylaminopyridine], the inhibition at 1 µM in test [2] (1 μM) is -3%. Besides, the inhibition at 10 µM in test [2] is 52%. Further, the inhibition in vivo at 50 mg/kg in test [1] came out at 51%.
For `CC(=O)N(CCCSc1ccncc1)Cc1ccccc1` [Example 75, 4-[3-(N-benzyl-N-acetylamino)propylthio]pyridine], in that order: 5%, 45% and 54%.
As for `CC(=O)N(CCCSc1ccncc1)Cc1ccccn1` [Example 79, 4-[3-(N-2-pyridylmethyl-N-acetylamino)propylthio]pyridine], the inhibition in vivo at 50 mg/kg in test [1] came out at 48%.
As to `Cl.Cl.O=C(c1ccccc1)N(CCCSc1ccncc1)Cc1ccccn1` [Example 82, 4-[3-(N-2-pyridylmethyl-N-benzoylamino)propylthio]pyridine dihydrochloride], the “Inhibitory percentage (phenylquinone writhing)” value in test [1] worked out at 47%.
Consider `CC(C)(C)C(=O)NCCCOc1ccncc1` [Example 86, 4-(3-pivaloylaminopropyloxy) pyridine], for which, in test [1], the inhibition in vivo at 50 mg/kg is 51%.
Take `O=C(NCCCOc1ccncc1)c1cccnc1` [Example 87, 4-(3-nicotinoylaminopropyloxy)pyridine]: the inhibition in vivo at 50 mg/kg in test [1] was found to be 47%.
For the compound `O=C(c1ccccc1)N(CCCSc1ccncc1)Cc1cccs1` [Example 92, 4-[3-(N-(2-thienylmethyl)-N-benzoylamino)propylthio]pyridine], the “Inhibitory percentage (phenylquinone writhing)” value in test [1] came out at 74%.
`O=C1[C@H]2CC=CC[C@H]2C(=O)N1CSc1ccncc1` [Example 96, 4-[cis-(1,2,3,6-tetrahydrophthalimido)methylthio]pyridine] registered an IC50 against cyclooxygenase of 13 µM.
In the case of `O=C1c2ccccc2C(O)N1CCCOc1ccncc1` (stereo not drawn) [Example 99, 4-[3-(3-hydroxyisoindolin-1-on-2-yl)propyloxy]pyridine], the midpoint of inhibition against cyclooxygenase, the IC50, lay at 12 µM.
In turn, `O=C(NCCCCSc1ccncc1)c1ccccc1CO` [Example 106, 4-[4-(2-hydroxymethylbenzoyl)aminobutylthio]pyridine] came in with an IC50 at cyclooxygenase of 3.7 µM. This IC50 lies about 3.2-fold lower than the previous one.
On the same count and under the same terms, with `O=C1c2ccccc2C(O)N1CCCCSc1ccncc1` (stereo not drawn) [Example 107, 4-[4-(3-hydroxyisoindolin-1-on-2-yl)butylthio]pyridine] the figure was 4.3 µM.
Take `O=C(NCCCOc1ccncc1)c1cc2ccccc2s1` [Example 115, 4-[3-(thianaphthene-2-carbonyl)aminopropyloxy]pyridine hydrochloride]: in test [2] (1 μM), the inhibition at 1 µM was determined as 18%. The inhibition at 10 µM in test [2] worked out at 53%.
For the compound `O=C(c1ccccc1)N(CCOc1ccncc1)Cc1ccccc1` [Example 117, 4-[2-(N-benzyl-N-benzoyl)aminoethyloxy]pyridine], the “% Inhibition of ART growth” value in test [2] (1 μM) is 3%. Further, the inhibition at 10 µM in test [2] was 39%.
`O=C(N(CCSc1ccncc1)Cc1ccccc1)C(F)(F)F` [Example 119, 4-[2-(N-benzyl-N-trifluoroacetylamino)ethylthio]pyridine] showed an IC50 on cyclooxygenase of 4.6 µM. Further, in test [2] (1 μM), the inhibition at 1 µM worked out at 13%. Also, the inhibition at 10 µM in test [2] stood at 43%.
`O=C(c1ccccc1)N(CCSc1ccncc1)Cc1ccccc1` [Example 120, 4-[2-(N-benzyl-N-benzoylamino)ethylthio]pyridine]: in test [2] (1 μM), the inhibition at 1 µM was determined as 16%. Further, the inhibition at 10 µM in test [2] came out at 74%.
As to `O=C(NCCSc1ccncc1)c1cccs1` [Example 122, 4-(2-thenoylaminoethylthio)pyridine], the 50% inhibitory concentration (IC50) at cyclooxygenase worked out at 3.8 µM. In other words, the single-digit micromolar range.
As for `CC1(C)NC(=O)N(CCCCSc2ccncc2)C1=O` [Example 140, 5,5-dimethyl-3-[4-(4-pyridylthio)butyl]hydantoin], in test [2] (1 μM), the inhibition at 1 µM was -9%. Also, the inhibition at 10 µM in test [2] is -25%.
On cyclooxygenase, `O=C(NCCCCOc1ccncc1)c1ccccc1CO` [Example 148, 4-[4-(2-hydroxymethylbenzoyl)aminobutyloxy]pyridine] gave an IC50 of 3.1 µM. That is a single-digit micromolar value.
`COc1ccc(C=C2SC(=O)N(CCCCSc3ccncc3)C2=O)cc1` [Example 152, 4-[4-[5-(4-methoxybenzylidene)-2,4-thiazolidinedione]butylthio]pyridine]: the inhibition at 1 µM in test [2] (1 μM) was -20%. Also, the inhibition at 10 µM in test [2] came to 68%.
For the compound `O=C1SC(=Cc2ccccc2)C(=O)N1CCCSc1ccncc1` [Example 154, 4-[3-(5-benzylidene-2,4-thiazolidinedione)propylthio]pyridine], on cyclooxygenase, the midpoint of inhibition, the IC50, lay at 6 µM. Further, the inhibition at 1 µM in test [2] (1 μM) came out at 16%. The inhibition at 10 µM in test [2] is 27%.
Regarding `O=C1CSC(=O)N1CCCCSc1ccncc1` [Example 160, 4-[4-(2,4-thiazolidinedione)butylthio]pyridine], the inhibition at 1 µM in test [2] (1 μM) was -14%. Further, in test [2], the inhibition at 10 µM amounted to 33%.
In the case of `O=C1SC(=Cc2ccccc2)C(=O)N1CCCCSc1ccccn1` [Example 164, 2-[4-(5-benzylidene-2,4-thiazolidinedione)butylthio]pyridine], the inhibition at 1 µM in test [2] (1 μM) came out at 3%. Also, in test [2], the inhibition at 10 µM was -54%.
Turning to `O=C1c2ccccc2S(=O)(=O)N1CCCCSc1ccncc1` [Example 166, 4-(4-saccharinbutylthio)pyridine], at cyclooxygenase, the IC50 turned out to be 12 µM.
The compound `O=C(NCCSc1ccncc1)c1ccccc1O` [Example 168, 4-[2-(2-hydroxybenzoyl)aminoethylthio]pyridine] had an IC50 against cyclooxygenase of 3.6 µM.
